For 25 molecules, IC50 results are on record in US20030045480A1, “Method of treating hyperresorptive bone disorders” (priority 2001, published 2003).

What is called IC50 is the concentration at which inhibition is half-maximal.

Src Kinase (p60c-Src), sequence (P12931 whole entry): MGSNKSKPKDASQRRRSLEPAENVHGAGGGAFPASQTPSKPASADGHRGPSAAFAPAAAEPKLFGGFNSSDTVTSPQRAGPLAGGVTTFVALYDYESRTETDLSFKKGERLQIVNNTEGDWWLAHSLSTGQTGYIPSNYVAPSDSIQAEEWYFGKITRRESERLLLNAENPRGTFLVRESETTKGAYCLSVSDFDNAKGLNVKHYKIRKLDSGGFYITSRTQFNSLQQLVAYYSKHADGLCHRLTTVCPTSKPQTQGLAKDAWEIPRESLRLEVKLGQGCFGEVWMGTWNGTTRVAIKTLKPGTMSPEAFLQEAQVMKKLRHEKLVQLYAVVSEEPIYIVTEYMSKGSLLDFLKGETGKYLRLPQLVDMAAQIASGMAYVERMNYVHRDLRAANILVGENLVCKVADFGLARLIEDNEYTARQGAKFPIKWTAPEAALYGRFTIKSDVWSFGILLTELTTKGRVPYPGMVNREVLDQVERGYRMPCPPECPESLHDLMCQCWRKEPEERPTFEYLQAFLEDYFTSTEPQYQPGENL

The target in the experiment is Src Kinase (p60c-Src) (Homo sapiens, UniProt P12931). The experiment in a line: General Assay Method for Src-Kinase (DELFIA time-resolved fluorometry, poly(Glu,Tyr) substrate). Type of experiment: biochemical. Particulars: Src kinase 1:8000, 100 μM ATP, 15 min. at room temp; read-out: Activity (uMol. Delfia assay. IC50). The method, then:
The compounds 1-25 above were assayed for activity with respect to the Src protein tyrosine kinase by the fluorometric method described in Measurement of the Protein Tyrosine Kinase Activity of c-Src Using Time-Resolved Fluorometry of Europium Chelates, Braunwalder, A. F. et al., Analytical Biochemistry 238, 159-164 (1996), the disclosure of which is incorporated herein by reference, using the materials and procedures further specified below.
General Assay Method for Src-Kinase:
Costar 384 Clear, non-treated, high-binding plates
Sigma poly(Glu, Tyr) 4:1, Ave. MW 35,000
Sigma ATP (1.5 mM Stock Soln. in H2O)
MES Buffer: 30 mM MES (pH 6.8)
MBI Buffer: (MES+0.4 mg/ml BSA+0.003% IGEPAL)
Wallac Eu-labelled anti-phosphotyrosine Antibody (CR04-100)
Antibody Dilution Buffer: (MES+3%BSA)
DELFIA® Wash Solution (TTBS):
DELFIA Enhancement Solution
The plates were coated with 0.1 mg/ml poly(Glu, Tyr) in Coating Solution, 35 μl/well. It was let stand overnight at room temp. The plates were then washed 3 times with MES (100 μl/wash).
The reaction was stopped by aspiration, and then washed 3 times with MES (100 μl/wash). 20 μl 0.4 ng/μl of antibody in Antibody Dilution Buffer (final=8 ng Ab/well) was added and then incubated for 30 min. at RT. The antibody solution was removed by aspiration and then washed 3 times with 1X DELFIA Wash Solution. 20 μl DELFIA Enhancement Solution was added and the value was read.
In the case of `NC(=O)C(Cc1ccc2ccccc2c1)NC(=O)Nc1ccc(N2CCN(C3CCCCC3)CC2)c(NC(=O)/C=C/c2ccccc2)c1` (stereo not shown) [Example 9, 4-Cyclohexyl-1-{[2-cinnamoylamino]-4-[1-aminocarbonyl-2-(2-naphthyl)ethylamino]carbonylaminophenyl}piperazine], the IC50 was 17 µM.

Regarding `NC(=O)C(Cc1ccc2ccccc2c1)NC(=O)Nc1ccc(N2CCCN(C(=O)C3CCNCC3)CC2)c(NC(=O)CCCc2ccccc2)c1` (stereo not shown) [Example 13, 4-(Piperidin-4-yl)carbonyl-1-{[2-(4-phenylbutanoyl)amino]-4-[1-aminocarbonyl-2-(2-naphthyl)ethylamino]carbonylaminophenyl}homopiperazine], the half-maximal inhibitory concentration (IC50) worked out at 13 µM.

`NC(=O)C(CCc1ccccc1)NC(=O)Nc1ccc(N2CCCN(C(=O)C3CCNCC3)CC2)c(NC(=O)CCCc2ccccc2)c1` (stereo not shown) [Example 21]: the 50% inhibitory concentration (IC50) turned out to be 22 µM.

For `NC(=O)C(CC1CCCCC1)NC(=O)Nc1ccc(N2CCCN(C(=O)C3CCNCC3)CC2)c(NC(=O)CCCc2ccccc2)c1` (stereo not shown) [Example 20], the IC50 was determined as 28 µM.

For the molecule `CC(C)C(NS(=O)(=O)c1cc(NC(=O)/C=C/c2ccccc2)ccc1N1CCN(C2CCCCC2)CC1)C(N)=O` (stereo not shown) [Example 24, 1-[2-[N-(2-Aminocarbonyl-3-methylbutyl)sulfonamido]-5-[2-cinnamoylamino]]phenyl-4-cyclohexylpiperazine], the IC50 turned out to be 42 µM.

In the case of `NC(=O)C1CCC(CNC(=O)Nc2ccc(N3CCCN(C(=O)C4CCNCC4)CC3)c(NC(=O)c3cc4ccccc4o3)c2)CC1` (stereo not shown) [Example 16], the IC50 was 36 µM.

Turning to `N=C(N)c1ccc(C(=O)N(Cc2cccc(Oc3ccccc3)c2)C(Cc2ccc(-c3ccccc3)cc2)C(=O)NCC(N)=O)cc1` (stereo not shown) [Example 1, N-[4-Amidinobenzoyl]-N-[3-phenoxybenzyl]-3-(4-biphenyl)-alanyl-glycyl-amide], the half-maximal inhibitory concentration (IC50) was 22 µM.

With `CC(C)(C)c1ccc(Oc2cccc(CN(C(=O)c3cccc(C(=N)N)c3)C(CC3CCCCC3)C(=O)NCC(N)=O)c2)cc1` (stereo not shown) [Example 2, 3-amidinobenzoyl-(3-(4-tert-butylphenoxy)benzyl)-cyclohexylylalanyl-glycyl-amide], the concentration for half-maximal inhibition (IC50) was 23 µM.

For the molecule `NC(=O)C(Cc1ccc2ccccc2c1)NC(=O)Nc1ccc(N2CCN(C3CCCCC3)CC2)c(NC(=O)CCCc2ccccc2)c1` (stereo not shown) [Example 8, 4-Cyclohexyl-1-{[2-(4-phenylbutanoyl)amino]-4-[1-aminocarbonyl-2-(2-naphthyl)ethylamino]carbonylaminophenyl}piperazine], the 50% inhibitory concentration (IC50) was 8.5 µM.

Turning to `N=C(N)c1ccc(C(=O)N(Cc2ccc(-c3ccccc3)cc2)C(Cc2ccc(-c3ccccc3)cc2)C(=O)NCC(N)=O)cc1` (stereo not shown) [Example 7, N-[4-Amidinobenzoyl]-N-[4-biphenylmethyl]-3-(4-biphenyl)alanyl-glycyl-amide], the IC50 was 13 µM.

`NC(=O)C1CCC(CNC(=O)Nc2ccc(N3CCC(N4CCCCC4)CC3)c(NC(=O)c3cc4ccccc4o3)c2)CC1` (stereo not shown) [Example 19]: the concentration for half-maximal inhibition (IC50) was 22 µM.

`NC(=O)C(CC1CCCCC1)NC(=O)Nc1ccc(N2CCN(C3CCCCC3)CC2)c(NC(=O)/C=C/c2ccccc2)c1` (stereo not shown) [Example 12, 4-Cyclohexyl-1-{[2-cinnamoylamino]-4-[(1-aminocarbonyl-2-cyclohexyl)ethylamino]carbonylaminophenyl}piperazine]: the concentration for half-maximal inhibition (IC50) was 18.5 µM.

As to `CC(C)(C)c1ccc(Oc2cccc(CN(C(=O)c3cccc(C(=N)N)c3)C(Cc3ccc(N)cc3)C(=O)NCC(N)=O)c2)cc1` (stereo not shown) [Example 3, N-[3-Amidinobenzoyl]-N-[3-(4-tert-butylphenoxy)benzyl]-4-aminophenylalanyl-glycyl-amide], the half-maximal inhibitory concentration (IC50) came out at 45 µM.

Turning to `CC(C)C(NS(=O)(=O)c1cc(NC(=O)C2CCNCC2)ccc1N1CCC(Cc2ccccc2)CC1)C(N)=O` (stereo not shown) [Example 23], the half-inhibitory concentration (IC50) stood at 12 µM.

For the molecule `CC(C)(C)c1ccc(Oc2cccc(CN(C(=O)c3cccc(C(=N)N)c3)C(Cc3cccc4ccccc34)C(=O)NCC(N)=O)c2)cc1` (stereo not shown) [Example 4, N-[3-Amidinobenzoyl]-N-[3-(4-tert-butylphenoxy)benzyl]-1-naphthylalanyl-glycyl-amide], the concentration for half-maximal inhibition (IC50) was determined as 18 µM.

With `CC(C)(C)c1ccc(Oc2cccc(CN(C(=O)c3ccc(C(=N)N)cc3)C(Cc3c[nH]c4ccccc34)C(=O)NCC(N)=O)c2)cc1` (stereo not shown) [Example 6, 4-amidinobenzoyl-(3-(4-tert-butylphenoxy)phenoxybenzyl)-tryptanyl-glycyl-amide], the IC50 was 14 µM.

Turning to `NC(=O)C(Cc1ccc2ccccc2c1)NC(=O)Nc1ccc(N2CCCN(C(=O)C3CCNCC3)CC2)c(NC(=O)c2cc3ccccc3o2)c1` (stereo not shown) [Example 14, 4-(Piperidin-4-yl)carbonyl-1-{[2-(2-benzofuranoyl)amino]-4-[1-aminocarbonyl-2-(2-naphthyl)ethylamino]carbonylaminophenyl}homopiperazine], the IC50 worked out at 2.75 µM.

As for `CC(C)C(NS(=O)(=O)c1cc(NC(=O)C2CCCN2)ccc1N1CCC(Cc2ccccc2)CC1)C(N)=O` (stereo not shown) [Example 22, N-(1-Aminocarbonyl-2-methylpropyl)-2-[(4-phenylmethyl)piperidin-1-yl]-5-[(2-pyrrolidinocarbonyl)amino]phenylsulfonamide], the IC50 was determined as 14 µM.

As to `NC(=O)C1CCC(CNC(=O)Nc2ccc(N3CCCN(C(=O)C4CCCN4)CC3)c(NC(=O)c3cc4ccccc4o3)c2)CC1` (stereo not shown) [Example 18, 4-(Pyrrolidin-2-yl)carbonyl-1-[2-[(2-benzo-furanoyl)amino]-4-[[(4-aminocarbonyl)cyclohexyl-methyl-amino]carbonylamino]phenyl] homopiperazine], the half-inhibitory concentration (IC50) is 19 µM.

As for `NC(=O)C(CCc1ccccc1)NC(=O)Nc1ccc(N2CCN(C3CCCCC3)CC2)c(NC(=O)CCCc2ccccc2)c1` (stereo not shown) [Example 11, 4-Cyclohexyl-1-{[2-(4-phenylbutanoyl)amino]-4-[(1-aminocarbonyl-3-phenyl)propylamino]carbonylaminophenyl}piperazine], the IC50 stood at 11 µM.

Regarding `CC(C)(C)c1ccc(Oc2cccc(CN(C(=O)c3cccc(C(=N)N)c3)C(CCCNC(=N)N)C(=O)NCC(N)=O)c2)cc1` (stereo not shown) [Example 5, N-[3-Amidinobenzoyl]-N-[3-(4-tert-butylphenoxy)benzyl]-arginyl-glycyl-amide], the IC50 was 12.5 µM.

For the molecule `CNCC(=O)N1CCCN(c2ccc(NC(=O)NCC3CCC(C(N)=O)CC3)cc2NC(=O)c2cc3ccccc3o2)CC1` (stereo not shown) [Example 17], the IC50 stood at 37 µM.

For the molecule `NC(=O)C1CCC(CNS(=O)(=O)c2cc(NC(=O)C3CCCN3)ccc2N2CCC(Cc3ccccc3)CC2)CC1` (stereo not shown) [Example 25, N-[[(4-Aminocarbonyl)cyclohexylmethyl]amino]-[2-[(4-phenylmethyl)piperidin-1-yl]-5-[(2-pyrrolidinocarbonyl)-amino]phenyl]sulfonamide], the IC50 was determined as 27.5 µM.

Turning to `NC(=O)C(CCc1ccccc1)NC(=O)Nc1ccc(N2CCN(C3CCCCC3)CC2)c(NC(=O)/C=C/c2ccccc2)c1` (stereo not shown) [Example 10, 4-Cyclohexyl-1-{[2-cinnamoylamino]-4-[(1-aminocarbonyl-3-phenyl)propylamino]carbonylaminophenyl}piperazine], the 50% inhibitory concentration (IC50) is 15.5 µM.

Take `NC(=O)C(CC1CCCCC1)NC(=O)Nc1ccc(N2CCCN(C(=O)C3CCNCC3)CC2)c(NC(=O)c2cc3ccccc3o2)c1` (stereo not shown) [Example 15, 4-(Piperidin-4-yl)carbonyl-1-{[2-(2-benzofuranoyl)amino]-4-[1-aminocarbonyl-2-cyclohexylethylamino]carbonylaminophenyl}homopiperazine]: the IC50 came to 6.5 µM.
